According to US8877483B2, “Dioxin elimination promoter” (priority 2002, dated 2014):

Test system: liver cytochrome P450
Test: EPR spectra of rat liver after oral administration of PCB126 (construction of model animals)
Type: in vivo
Settings: rats, single forced oral dose 0, 0.3, 3, 30 or 100 μg/kg bw in corn oil, liver isolated 24 hour after administration; FIG. 1
Experimental: When the EPR measurement is carried out with rat liver as an experimental animal, the resonance absorption of an iron atom contained in cytochrome P450 protein is observed at a position of g=2.40. When dioxin were administered to a rat, an abnormal resonance absorption which is not observed in untreated case appears as a signal at a position of g=2.49, in addition to the normal resonance absorptions. Since the intensity of the abnormal signal becomes higher according to increase of an amount of dioxins administered, it can be a living body index showing a degree of pollution.
As laboratory animals, rats to which PCB 126 (3,3′,4,4′,5-pentachlorobiphenyl) had been administered were prepared. The rats were 6-week-old Sprangue-Dawley (purchased from Nippon Charles River). After acclimation rearing for about one week, they forcedly administered with solutions containing an adequate concentration of PCB 126 (manufactured by Wellington Laboratories; purity: 99.99% or more) dissolved in commercially available corn oil (manufactured by Hayashi Chemicals) so that the amount of cPCB was 0 (control), 0.3, 3, 30 or 100 μg/kg body weight (bw) in the same amount of corn oil through a probe. PCB-administered rats were euthanized with ether 24 hour after the administration. […] Then, tissue fragments were analyzed by an EPR measurement method. […]

Clc1ccc(-c2cc(Cl)c(Cl)c(Cl)c2)cc1Cl [cPCB, 3,3′,4,4′,5-pentachlorobiphenyl]
abnormal EPR signal at g=2.49 in liver tissue fragments: intensity varies depending on the administered amount
